Results taken from US20240180887A1, “USE OF PPAR(gamma) AGONISTS OR MPC INHIBITORS FOR TREATING PRIMARY, INNATE DISEASES OF THE CARDIAC MUSCLE (CARDIOMYOPATHIES)” (PREVENTAGE THERAPEUTICS GMBH, priority 2021, published 2024).
“Also recorded” adds a separate entry of the source.

Assays:
HCM mice (αMHC^719/+) [1] = test: Semi-quantitative myocardial fibrosis score on Masson's trichrome sections, stereoisomers of pioglitazone (experimental setup C); type: in vivo, mouse; settings: αMHC^719/+ mice, 10 mg/kg/day orally, 6 weeks, vs untreated αMHC^719/+
Experimental: FIG. 13 Determination of myocardial fibrosis using histopathological sections of myocardium. The manifestation of myocardial fibrosis (blue-colored in the Masson's trichrome-stained histological sections) was determined semi-quantitatively by two blinded examiners in each case independently of one another. The scores assigned were 0 to 3:0: no fibrosis, 1: mild fibrosis; 2: moderate fibrosis, 3: severe fibrosis; 0.5: no to mild fibrosis, 1.5: mild to moderate fibrosis; 2.5: moderate to severe fibrosis, 3: severe fibrosis. The animals were genotyped in their 3rd postnatal week (as also described in accordance with experimental setup A). Between their 6th and 12th postnatal week, all 65 mice were orally administered a daily dose of 30 mg/kg cyclosporin A (CsA) which was added to their pellet diet to accelerate hypertrophic remodeling in the myocardium in the HCM mouse model^56. Between their 6th and 12th postnatal week, (a) 13 WT and 9 MHC^719/+ mice were in addition treated orally with the (R)-stereoisomer of a thiazolidinedione (pioglitazone) (10 mg/kg/day) or (b) 12 WT and 11 αMHC^719/+ mice were in addition treated orally with the (S)-stereoisomer (pioglitazone) (10 mg/kg/day). In their 12th postnatal week, they were subjected to in vivo transthoracic echocardiography. The animals were then euthanized for ex vivo examination (organ removal and histopathology) (see FIG. 11). Examination by echocardiography was done as follows—specifically: removal of the mice from the cage, weighing and visual assessment of the animals, performance of echocardiography according to standardized, published standard protocols in conscious animals after 30 minutes of observation^39,41,37,40. In order to quantify fibrosis, the removed hearts were fixed in 4% of paraformaldehyde, dehydrated, and placed in paraffin, as described above^37,42,43. 5-μm sections were stained with Masson's trichrome. Semi-quantification of myocardial fibrosis was done independently of one another by two blinded examiners. For this purpose, the percentage of cardiac muscle portions stained blue with Masson's trichrome in relation to the overall stained cardiac muscle was calculated. Perivascular and intramurine structures, the endocardium, and trabeculas were excluded in the calculation of the percentage of fibrosis. The classification was “no fibrosis,” “mild fibrosis,” “moderate fibrosis,” and “severe fibrosis.”

HCM mice (αMHC^719/+) [2] = test: Echocardiography: maximum left ventricular wall thickness, stereoisomers of pioglitazone (experimental setup C); type: in vivo, mouse; settings: αMHC^719/+ mice, 10 mg/kg/day orally, 6 weeks, vs untreated αMHC^719/+
From the text: This experimental protocol examined the action of the two stereoisomers of a thiazolidinedione (pioglitazone) ((S)- and (R)-stereoisomers) in the same hypertrophic cardiomyopathy mouse model as described for experimental setup A. The experimental setup is thus similar to the experimental setup according to A. The animals were genotyped in their 3rd postnatal week (as also described in accordance with experimental setup A). Between their 6th and 12th postnatal week, all 65 mice were orally administered a daily dose of 30 mg/kg cyclosporin A (CsA) which was added to their pellet diet to accelerate hypertrophic remodeling in the myocardium in the HCM mouse model^56. Between their 6th and 12th postnatal week, (a) 13 WT and 9 MHC^719/+ mice were in addition treated orally with the (R)-stereoisomer of a thiazolidinedione (pioglitazone) (10 mg/kg/day) or (b) 12 WT and 11 αMHC^719/+ mice were in addition treated orally with the (S)-stereoisomer (pioglitazone) (10 mg/kg/day). In their 12th postnatal week, they were subjected to in vivo transthoracic echocardiography. The animals were then euthanized for ex vivo examination (organ removal and histopathology) (see FIG. 11). As shown in experimental setup A, in vivo phenotyping of the left ventricular wall thickness and ventricular function was done by means of transthoracic echocardiography, as described above^40,41,39. Examination by echocardiography was done as follows—specifically: removal of the mice from the cage, weighing and visual assessment of the animals, performance of echocardiography according to standardized, published standard protocols in conscious animals after 30 minutes of observation^39,41,37,40. In order to quantify fibrosis, the removed hearts were fixed in 4% of paraformaldehyde, dehydrated, and placed in paraffin, as described above^37,42,43. […] Semi-quantification of myocardial fibrosis was done independently of one another by two blinded examiners. For this purpose, the percentage of cardiac muscle portions stained blue with Masson's trichrome in relation to the overall stained cardiac muscle was calculated. […]

PPARγ mRNA = test: Relative expression of PPARγ mRNA in the left ventricular myocardium (RtPCR); type: in vivo, mouse; settings: αMHC^719/+ mice, oral rosiglitazone, 6 weeks, compared to wild-type level
Experimental: FIG. 7 Relative expression of PPARγ mRNA in the left ventricular myocardium of untreated HCM mice and HCM mice (αMHC^719/+) treated with N-acetylcysteine (NAC) or rosiglitazone (Rosi) compared to wild-type mice (WT) after 6 weeks; ***: p<0.001.
RNA isolation was carried out by means of the peqGOLD Total RNA Kit (Peqlab) from the left ventricular myocardium according to the manufacturer's instructions. First-strand cDNA was synthesized from 500 ng of total RNA, which is reverse-transcribed (Reverse Transcription Kit, Invitrogen) with random hexamers (TIB Molbiol). RtPCR analysis is carried out with Perfecta SYBR Green fast Mix (VWR, Germany) in the QIAGEN Rotor-Gene Q (Corbett Rotor-Gene 6000). Quantification is done by means of […] calculation and randomization test^49,50.

[3] = tested on: αMHC^719/+ HCM mouse model; test: Preclinical αMHC^719/+ HCM mouse model, overall summary of results; type: in vivo; settings: oral administration in the αMHC^719/+ HCM mouse model
Experimental: The examinations were carried out on an established HCM mouse model, in which an arginine-to-tryptophan mutation at position 719 of the heavy chain of the cardiac mouse alpha-myosin gene was effected by homologous recombination (referred to as αMHC^719/+)^38. Such genetically modified mice increasingly develop the typical pathognomonic disease characteristics of hypertrophic cardiomyopathy such as myocardial hypertrophy and fibrosis with increasing age. The phenotype of this genetically generated HCM mouse model thus simulates the phenotype of HCM patients affected^36,37,38. The manifestation of the disease can be accelerated by subcutaneous administration of the calcineurin inhibitor cyclosporin A (CsA)^9.
Between their 6th and 12th postnatal week, all mice were injected subcutaneously with cyclosporin A (CsA) to accelerate hypertrophic remodeling in the myocardium in the HCM mouse model^9. Half of the mice were treated with the PPARγ agonists rosiglitazone and pioglitazone from the group of thiazolidinediones between their 6th and 12th postnatal week. In their 12th postnatal week, they were subjected to in vivo transthoracic echocardiography. The animals were then euthanized for ex vivo examination (organ removal, histopathology, and determination of radical oxygen species, of mRNA and protein expression in the tissue) (see FIG. 10).D

[4] = (R)-Pio p=0.01, (S)-Pio p=0.916
[5] = (R)-Pio p<0.001, (S)-Pio p=0.072

Row | SMILES | development of myocardial fibrosis (semi-quantitative score 0 to 3) (HCM mice (αMHC^719/+) [1]; [4]) | development of myocardial fibrosis (semi-quantitative score 0 to 3) (HCM mice (αMHC^719/+) [1]; (R)-Pio p=0.01, (S)-Pio p=0.916, listed as S-stereoisomer of pioglitazone) | development of myocardial hypertrophy (maximum thickness of the wall of the left ventricle) (HCM mice (αMHC^719/+) [2]; [5]) | development of myocardial fibrosis (semi-quantitative score 0 to 3) (HCM mice (αMHC^719/+) [1]; (R)-Pio p=0.01, (S)-Pio p=0.916, listed as (R)-stereoisomer of a thiazolidinedione) | development of myocardial hypertrophy (maximum thickness of the wall of the left ventricle) (HCM mice (αMHC^719/+) [2]; (R)-Pio p<0.001, (S)-Pio p=0.072, listed as (R)-stereoisomer of a thiazolidinedione) | myocardial mRNA expression of PPARγ (PPARγ mRNA) | changes in biophysical properties in the heart muscle cell and onset of myocardial hypertrophy and fibrosis [3]
1 | CCc1ccc(CCOc2ccc(C[C@@H]3SC(=O)NC3=O)cc2)nc1 (single isomer, unassigned) [(S)-stereoisomer of pioglitazone] | not in a reduction of myocardial fibrosis | cannot be seen | tends to result in lessened hypertrophy; also recorded: less pronounced | – | – | – | –
2 | CCc1ccc(CCOc2ccc(C[C@H]3SC(=O)NC3=O)cc2)nc1 (single isomer, unassigned) [(R)-stereoisomer of pioglitazone] | significantly inhibited | – | significantly inhibited | significantly lessened | significantly lessened | – | –
3 | CN(CCOc1ccc(CC2SC(=O)NC2=O)cc1)c1ccccn1 (racemic) [rosiglitazone, (RS)-5-({4-[2-(methyl-2-pyridinylamino)ethoxy]phenyl}methyl)-2,4-thiazolidinedione] | – | – | – | – | – | increases the myocardial mRNA expression of PPARγ again almost completely to wild-type level | largely prevents
